Results as given in patent US20030040541A1, “Use of bismuth subgallate in inhibition of production of nitric oxide synthase” (Hedonist Biochemical Technologies Co., Ltd., priority 2001, published 2003).

Tested on: RAW 264.7 cells
Test: NO production (nitrite, Griess reaction) by LPS/IFN-γ activated RAW 264.7 cells
Type: cell-based, mice
Details: 24 hours
Procedure: The cells of the mice macrophage cell line RAW 264.7 (under accession number CCRC 60001), which was obtained from Cell Culture Research Center, Food Industry Research and Development Institute, Hsinchu, Taiwan, R.O.C., were used for the test.
The RAW 264.7 cells were incubated in a 96 well tissue culture plate (Falcon). After 24 hours, the cells were activated with Dulbecco's Modified Eagle Medium (DMEM, 2014, GibcoBRL) in the presence and absence of 100 ng/ml LPS, 100 U/ml IFN-γ and various concentrations (10 μM, 20 μM, 50 μM, 100 μM and 200 μM) of bismuth subgallate (Hwang et al., 1994, J. Biol. Chem. 269, p. 711-715). After 24 hours, 50 μl of the supernatant from each well was assayed for the presence of nitrite through the Saville modification of the Griess reaction (Green et al., Analytical Biochem, 1982, 126:131-138). The results were represented by the means plus standard errors values (Mean±SE) of three repetitions.
The effect of borneol on the inhibition of NO synthase was tested through the same experimental procedures as described in Example 1. Various concentrations of borneol (0 μM, 40 μM, 80 μM, 160 μM, 320 μM and 640 μM) were used to replace bismuth subgallate of Example 1. The results were represented by the mean values of three repetitions with standard errors (Mean±SE).
The effect of bismuth subgallate in combination with borneol on the inhibition of NO synthase was tested through the similar experimental procedures as described in Example 1. The following concentrations of Bismuth subgallate: 0 μM, 12.5 μM, 25 μM, 50 μM and 100 μM, were combined with the following concentrations of borneol: 0 μM, 10 μM, 20 μM and 40 μM, respectively, to obtain the combinations for the replacement of bismuth subgallate used in Example 1. The results were represented by the mean values of three repetitions with standard errors (Mean±SE).

CC1(C)C2CCC1(C)C(O)C2 (stereo not drawn) [borneol]
NO production (nitrite concentration in supernatant) (borneol 0, 40, 80, 160, 320, 640 μM, LPS + IFN-γ activated cells, FIG. 2): not significantly inhibited

bismuth subgallate
NO production (nitrite concentration in supernatant) (bismuth subgallate 10, 20, 50, 100, 200 μM, 100 ng/ml LPS + 100 U/ml IFN-γ, FIG. 1): showed a reduction in nitrite concentration
concentration dependence of NO production (bismuth subgallate 10-200 μM, LPS + IFN-γ activated cells, FIG. 1): inversely proportional to the increase in the concentration of bismuth subgallate
